EP4463162B1, “CONNEXIN 43 FOR USE IN TREATING BRCA1/2-MUTATED CANCER” (Fundación Profesor Novoa Santos, priority 2022, dated 2023)
Where two headings read alike, the source gives them in different places.

Assays:
p21 = assay: Western blot against senescence marker p21; assay type: cell-based, human; conditions: Cx43_HCC1937, 96 h, 100 µM olaparib
Description: Protein extracts were mixed with loading buffer, which consisted of 10 % (v/v) β-mercaptoethanol (Sigma-Aldrich), 10 % SDS, 50 % (v/v) glycerol, 200 mM Tris-HCl pH 6.8 and 0.1 % bromophenol blue (Sigma-Aldrich). They were boiled at 95 °C for 8 min and 20-30 µg protein were loaded into 8, 10 or 15 % acrylamide/bis-acrylamide self-made gels, depending on the molecular weight of the target protein/s to investigate. Gels were run at 80 V for approximately 2 h using a Mini-PROTEAN Tetra electrophoresis system (BioRad), and then transferred to methanol-preactivated polyvinylidene fluoride (PVDF) membranes (Millipore) at 100 V and 4 °C for 1-1.5 h with a Mini Trans-Blot Electrophoretic Transfer Cell (BioRad). Afterwards, membranes with the transferred proteins were stained with ATX Ponceau S red staining solution (Sigma-Aldrich) for 10 min at room temperature, photographed in an Amersham Imager 600 (GE Healthcare) and unstained with distilled water. They were then blocked for 1 h at room temperature with 5 % skim milk (Sigma-Aldrich) diluted in TBST buffer (Tris-buffered saline TBS composed of 20 mM Tris and 150 mM NaCl, supplemented with 0.05 % (v/v) Tween-20, Sigma-Aldrich) with shaking. […] Ponceau staining and western blot images were analysed and their band intensities quantitated with Image J software. […]

HCC1937 cells = assay: Cell culture under Anoikis-inducing conditions, western blot and imaging; assay type: cell-based, human
Description: Protein extracts were mixed with loading buffer, which consisted of 10 % (v/v) β-mercaptoethanol (Sigma-Aldrich), 10 % SDS, 50 % (v/v) glycerol, 200 mM Tris-HCl pH 6.8 and 0.1 % bromophenol blue (Sigma-Aldrich). They were boiled at 95 °C for 8 min and 20-30 µg protein were loaded into 8, 10 or 15 % acrylamide/bis-acrylamide self-made gels, depending on the molecular weight of the target protein/s to investigate. Gels were run at 80 V for approximately 2 h using a Mini-PROTEAN Tetra electrophoresis system (BioRad), and then transferred to methanol-preactivated polyvinylidene fluoride (PVDF) membranes (Millipore) at 100 V and 4 °C for 1-1.5 h with a Mini Trans-Blot Electrophoretic Transfer Cell (BioRad). Afterwards, membranes with the transferred proteins were stained with ATX Ponceau S red staining solution (Sigma-Aldrich) for 10 min at room temperature, photographed in an Amersham Imager 600 (GE Healthcare) and unstained with distilled water. They were then blocked for 1 h at room temperature with 5 % skim milk (Sigma-Aldrich) diluted in TBST buffer (Tris-buffered saline TBS composed of 20 mM Tris and 150 mM NaCl, supplemented with 0.05 % (v/v) Tween-20, Sigma-Aldrich) with shaking. Next, membranes were incubated overnight at 4 °C with rotation with primary antibodies of interest (see antibody references in Table 3), diluted in 5 % skim milk in TBST. After 4-5 TBST washes (5 min/wash), membranes were incubated for 1 h at room temperature with rotation with secondary antibodies conjugated to horseradish peroxidase (HRP) (see antibody references in Table 3), diluted in 5 % skim milk in TBST. Membranes were rinsed again 4-5 times (5 min/wash) with TBST and the signal was developed with Pierce ECL Western Blotting Substrate (Thermo Fisher Scientific), in either a LAS-3000 Imager (Fujifilm) or an Amersham Imager 600 (GE Healthcare). When necessary, membranes were stripped for 15 min with a pH 2.2 buffer composed of […], 0.5 g SDS and 5 mL Tween20 in 500 mL distilled water. Once stripped, membranes were washed with TBST for 15 min, re-blocked with 5 % skim milk and re-probed with the antibodies of choice. Ponceau staining and western blot images were analysed and their band intensities quantitated with Image J software.
HCC1937 cells were cultured under anchorage-independent growth conditions for 48 h. For this purpose, non-adherent 90 mm polystyrene Petri dishes (Thermo Fisher Scientific) were coated with 10 mg/ml poly-HEMA (Sigma-Aldrich), which makes the dish surface highly repellent to cells, promoting their culture under forced-suspension conditions. […] Images of the cultures were taken at 0 and 48 h, and cell pellets were then collected for western blot analysis.
Anoikis refers to a form of programmed cell death induced by disruption of cell adhesion of normal epithelial cells that detach from the surrounding extracellular matrix. Anoikis resistance has been identified as a hallmark of cancer cells, as survival of normally adherent cells in suspension conditions can enable them to metastasize to distant sites. It has been studied both in the presence and absence of serum; serum deprivation constitutes another way of measuring cell resilience under adverse circumstances, as fetal bovine serum (FBS) contains a variety of growth factors and other elements required for cell survival in culture. When cultured under anchorage-independent/forced suspension conditions for 48 h (Figure 10.C), Cx43_HCC1937 cells formed smaller multicellular aggregates (dashed red lines) than EV_HCC1937, particularly in the absence of FBS.

SNU251 cells = assay: Proliferation assay (Cell Counting Kit-8); assay type: cell-based, human; conditions: Cx43-restored SNU251 vs EV, 100 and 200 µM olaparib, 96 h, beginning at 48 h
Description: Proliferation of tumour cell lines was evaluated using the Cell Counting Kit-8 (Dojindo Molecular Technologies). This kit comprises WST-8, a highly water-soluble tetrazolium salt, which upon reduction by cellular dehydrogenases of viable cells, gives rise to a yellow formazan dye that is solube in cell culture media and can be quantitated. Briefly, similar number of cells (1 000-5 000) were plated in 96-well plates (Corning) and left to grow for the desired time period under different treatment conditions. Then, medium was renewed (100 µL volume/well) and 10 µL of CCK-8 reagent were added to each well. Plates were incubated in the dark for 3 h at 37 °C, and absorbance was measured at 450 nm in a NanoQuant Infinite 200 plate reader (Tecan).
In order to complement previous results with another clinically relevant PARPi-treated cancer, assays were repeated with BRCA1 mutated ovarian cancer cell line SNU251, efficiently nucleofected with EV or Cx43-restituting plasmids (Figure 8). SNU251 wild type (EV) cells had no native Cx43 expression, as assayed by western blot ( Figure 8.A).
To further characterize its involvement in BRCA1/2 mutated cancer, Cx43 was restituted by plasmid transfection in BRCA1 mutated TNBC and ovarian carcinoma cell lines, HCC1937 and SNU251, respectively. […]

[1] = test system: cleaved caspase 3, PARP-1; conditions: 50 and 100 µM olaparib
[2] = Cx43_HCC1937, 50 µM olaparib, 48 h Anoikis-inducing conditions
[3] = EV_HCC1937, 50 µM olaparib, 48 h Anoikis-inducing conditions

O=C(c1cc(Cc2n[nH]c(=O)c3ccccc23)ccc1F)N1CCN(C(=O)C2CC2)CC1 [Olaparib, olaparib]
senescence marker p21 (p21): significantly increased | cell aggregates in suspension (HCC1937 cells; 50 µM olaparib, 48 h, effect more pronounced in Cx43_HCC1937 than EV): partial disintegration of these clusters | Total protein PARylation (HCC1937 cells; [2]): decrease | cleaved caspase 3 levels (HCC1937 cells; [2]): further increased this cleavage | γH2AX (HCC1937 cells; Cx43_HCC1937, 50 µM olaparib, 48 h Anoikis-inducing conditions, absence of serum): further exacerbated this outcome | Total protein PARylation (HCC1937 cells; [3]): rise | cleaved caspase 3 levels (HCC1937 cells; [3]): no significant changes | response to olaparib (proliferation) (SNU251 cells): significantly better response to olaparib than EV cells | PARP-1 cleavage ([1]; Cx43_HCC1937, 96 h): strong PARP-1 cleavage | PARP-1 cleavage ([1]; EV_HCC1937, 96 h): low cleavage levels
